Common to all, as to assay type: in vivo
The test system of test [1] is C57BL/6J mice subjected to ICH. In words: Morris water-maze test (MWM) after ICH. The following applies: then twice daily, 72 hours after ICH, mean±SEM. As for the experimental part: (§1) Animal Preparation and Intracerebral Infusion. Adult male C57BL/6J mice weighing 23-30 g were used. Mice were randomized to receive intraperitoneal injection of either C3aRA (1 mg/kg) (SB290157, Calbiochem, Darmstadt, Germany) diluted in PBS and DMSO (1.16% v/v), or an equal volume of vehicle (PBS and DMSO, 1.16% DMSO v/v) either 45 minutes prior to ICH induction or 6 and 12 hours after induction of ICH, followed in both cohorts by twice daily doses for 72 hours. […] Sham animals were given PBS and DMSO (1.16% v/v) in the same manner.
Mice were anesthetized with a single intraperitoneal dose of ketamine (90 mg/kg) and xylazine (5 mg/kg). […]
Neurofunction and behavioral testing. Sensorimotor function was evaluated by means of the 28-point neurological function score, corner test and forelimb placing tests, which were performed pre-operatively and at 6, 24, 48 and 72 hour post-injury. Navigational memory was evaluated with the means of a Morris water-maze (MWM) test pre-operatively and at 72 hours post ICH. […]
Morris water-maze test (MWM). […] The time, in seconds, spent by each animal to find the platform was recorded. […] The time spent in the quadrant where the platform had been situated before was recorded. […]

Test [2] has as its system C57BL/6J mice subjected to ICH. Description: Histopathology, hematoma (lesion) volume after ICH. The following applies: 1 mg/kg i.p. 45 minutes prior to ICH, then twice daily; 72 hours after ICH; mean±SEM. As for the experimental part:
as §1
Mice were anesthetized with a single intraperitoneal dose of ketamine (90 mg/kg) and xylazine (5 mg/kg). Next, the mice were placed in a stereotactic frame (ASI Instruments, Inc., Warren, Mich., USA) and subjected to ICH using autologous blood infusion as previously described (Rynkowski M A et al, 2008, Nat Protoc 3: 122-128), Briefly, a 1-mm burr hole was drilled 2.3 mm lateral to the midline and 0.2 mm anterior to the bregma. Thirty μL of autologous whole blood were drawn from the tail artery into a capillary tube. […]
Histopathology and determination of lesion volume. […] Striatal lesion volume was determined by digitizing serial coronal sections ([…]) to span the entire hematoma. […] Volume of the lesion (mm^3) was then determined by summation of the lesion area in each coronal section and integrating over the section depth of 0.5 mm.

Test [3] has as its system model of focal ischemic stroke. In words: Dose-response trial in a model of focal ischemic stroke. Conditions: comparing 0.1, 0.5, 1 and 5 mg/kg.

Regarding `NC(N)=NCCC[C@H](NC(=O)COCC(c1ccccc1)c1ccccc1)C(=O)O` [C3aRA], the “MWM time spent in the target quadrant” value in test [1] (1 mg/kg i.p. 45 minutes prior to ICH) is 19.62 ± 1.08 s; in test [1] (1 mg/kg i.p. first at 6 h and 12 h after ICH), 18.9 ± 1.3 s. This compound showed a mean hematoma volume in test [2] of 12.17±1.33 mm^3. Besides, in test [3], the most effective dose worked out at 1 mg/kg.

These data come from patent US9180160B2, “Complement inhibitors for treatment of injury from intracerebral hemorrhage” (The Trustees of the University of Pennsylvania, priority 2008, dated 2015).
